US20010036933A1, “Water soluble lipidated arabinogalactan” (The University of Montana, priority 1996, published 2001)

What was measured:
[1] = Solubility of progesterone in water and in aqueous AG decanoate (UV absorption at 250 nm); type: physicochemical; conditions: 60° C. 10 min, then 25° C. 20 h
Description: Progesterone was heated with water at 60° C. for 10 min, then held at 25° C. for 20 h. […] When the above experiment was repeated with a 1% aqueous solution of AG decanoate (DS 2.59%) the saturated solution contained 4.7×10^−3% progesterone. In the UV analysis of the AG decanoate solution of the progesterone, the appropriate AG decanoate solution without progesterone was used as a spectrometer blank.

[2] = tested on: tumor metastases; conditions: mice; cited from earlier work
[3] = tested on: neutrophil-HUVEC adhesion; experiment: Neutrophil-HUVEC adhesion under physiological shear forces (closed-loop capillary tube, video-microscopy); type: cell-based, human; conditions: for effect on neutrophil rolling on activated HUVEC: 1-100 μg/ml
Description: The in vitro effects of Compound A-F listed in Table I on leucocyte and endothelial cell adhesion under physiological shear forces was examined as follows.
Human umbilical vein endothelial cells (HUVEC) were grown to confluence on the internal surface of collagen type I coated capillary tubes. Endothelial cells were stimulated for 4 hours with […] (10 ng, Genzyme), which upregulates adhesion molecules such as E-selectin within 4-6 hours. Neutrophils and lymphocytes were collected from normal human donors by venipuncture and separated from the blood on ficoll-histoplaque density gradients. The endothelial cell-coated tubes were then integrated into the closed-loop system. Leukocytes were infused into the assay system at a concentration of 1×10^6-5×10^6 cell/ml in DMEM plus 20 mM HEPES. Shear forces of 1-3 dynes/cm^2 (standard representation of blood flow) were applied via a variable speed peristaltic pump, and interactions between the leukocytes and endothelial cells were monitored by video-microscopy. Comparisons were made of the binding of leukocytes and endothelial cells treated with the 6 compounds and untreated controls.
To observe the effects of the compounds on neutrophil adhesive interactions, the neutrophils were infused and allowed to establish rolling for two minutes before the addition of the compounds. The compounds were added in increasing 1 μg/ml, 10 μg/ml, and 100 μg/ml final concentrations at 2 minute intervals. The interactions were recorded to video tape.

[4] = tested on: ovalbumin (“O.A.”); experiment: Assay of adjuvant activity: antibody formation in mice injected with ovalbumin plus arabinogalactan compound; type: in vivo; conditions: for adjuvant activity in antibody formation in comparison to the control: 25 μg ovalbumin in saline with 50, 10 or 2 μg compound, booster day 21, bled days 7, 14, 28, 35
Description: In the experiment, 25 μg of ovalbumin (“O.A.”) was injected into mice in a saline solution together with 50, 10, 2 or 0 μg (the control) of the arabinogalactan compounds. The animals were prebled prior to immunization; injected; bled on days 7 and 14; given a booster injection on day 21; and bled on days 28 and 35 for antibody determination.

[5] = Formation of oil-water emulsions with water-soluble lipidated arabinogalactan; type: physicochemical

With `CC(=O)[C@H]1CC[C@H]2[C@@H]3CCC4=CC(=O)CC[C@]4(C)[C@H]3CC[C@]12C` [Progesterone] the “dissolved progesterone in saturated solution” value ([1]; 1% aqueous solution of AG decanoate (DS 2.59%)) was 4.7×10^−3% and the “dissolved progesterone in saturated solution” value ([1]; water) was 8.8×10^−4%.
For “AG (ultrarefined) [Compound A, reference compound]”, the “effect on tumor metastases” value [2] is given as “reduce tumor metastases”, the “effect on neutrophil rolling on activated HUVEC” value (“effect on neutrophil rolling” below) [3] is given as “significantly blocked” and the “reduction in neutrophil adhesion” value ([3]; during the time course, 1, 10, 100 μg/ml added at 2 minute intervals, IL-stimulated HUVEC) is given as roughly 75%. The “reduction of neutrophil binding to baseline” value ([3]; even at 10 μg/ml or 100 μg/ml) was “did not reduce binding to baseline” and the “adjuvant activity in antibody formation in comparison to the control” value (from here on “adjuvant activity in antibody formation”) [4] was “some adjuvant activity”.
With AG decanoate (DS 2.6%) the “effect on neutrophil rolling” value [3] was “no measurable effect”.
In the case of AG dodecyl ether (DS 1.3%) [F], the “effect on neutrophil rolling” value [3] is reported as “no measurable effect”.
In the case of AG palmitate (DS 1.7%) [C], the “stability of emulsion with safflower oil” value ([5]; 2 mL 1.0% aqueous solution mixed with safflower oil (4 g), room temperature) is reported as “no separation of phases was evident after several days”, the “behaviour on shaking with hexane” value ([5]; 2 mL 1% solution shaken with hexane (1 mL)) is reported as “upper phase became extremely viscous and opaque and remained in this state for several days” and the “concentration effective in blocking neutrophil-HUVEC adhesion” value [3] is reported as 1 µg/mL. For the same compound, the “effect on neutrophil rolling” value [3] was “significantly blocked”, the “adjuvant activity in antibody formation” value [4] was “some adjuvant activity” and the “adjuvant activity, rank among the three arabinogalactan compounds” value ([4]; ovalbumin antigen) was “highest adjuvant activity”.
In the case of “AG palmitate [high substitution (DS 7.3%) AG palmitate]”, the “adjuvant activity in antibody formation” value [4] is reported as “some adjuvant activity”.
With AG stearate (DS 1.7%) [B] the “concentration effective in blocking neutrophil-HUVEC adhesion” value [3] was 1 µg/mL and the “effect on neutrophil rolling” value [3] was “significantly blocked”.
For “galactan from fractional hydrolysis of AG (arabinose 1.5%)”, the “effect on neutrophil rolling” value [3] was “no measurable effect”.
